Source: US10131652B2, “Pyrimidinyloxy benzene derivatives as herbicides” (E. I. DU PONT DE NEMOURS AND COMPANY, priority 2014, dated 2018)

Legend:
Format in all cases: in vivo
rice (Oryza sativa) = assay: Test C flooded paddy test plant response; conditions: Flood, 250 g ai/ha; scale of 0 to 100 where 0 is no effect and 100 is complete control; 13 to 15 days
In short: (§1)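 2-leaf plants; flood 3 cm, cpd into paddy water; greenhouse 13–15 d; visual score vs untreated, 0 = no effect, 100 = complete control; dash = no result.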

[1] = test system: small-flower umbrella sedge (Cyperus difformis); assay: Test C flooded paddy test plant response; conditions: Flood, 250 g ai/ha; scale of 0 to 100 where 0 is no effect and 100 is complete control; 13 to 15 days
In short: as §1

[2] = test system: ducksalad (Heteranthera limosa); assay: Test C flooded paddy test plant response; conditions: Flood, 250 g ai/ha; scale of 0 to 100 where 0 is no effect and 100 is complete control; 13 to 15 days
In short: as §1

[3] = test system: barnyardgrass (Echinochloa crus-galli); assay: Test C flooded paddy test plant response; conditions: Flood, 250 g ai/ha; scale of 0 to 100 where 0 is no effect and 100 is complete control; 13 to 15 days
In short: as §1

[4] = test system: lambsquarters (Chenopodium album); assay: Test D pre-/postemergence plant response
In short: (§2)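 Ratings were visual, 0 = no effect to 100 = complete control, taken against untreated controls after 13 to 15 days in a greenhouse. Chemicals, formulated in non-phytotoxic surfactant-containing solvent, went onto soil (loam/sand) at planting for preemergence, or onto 1- to 4-leaf plants (2–18 cm) for postemergence.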

[5] = test system: winter wheat (Triticum aestivum); assay: Test D pre-/postemergence plant response
In short: as §2

[6] = test system: large (Lg) crabgrass (Digitaria sanguinalis); assay: Test D pre-/postemergence plant response
In short: as §2

[7] = test system: galium (catchweed bedstraw, Galium aparine); assay: Test D pre-/postemergence plant response
In short: as §2

[8] = test system: velvetleaf (Abutilon theophrasti); assay: Test D pre-/postemergence plant response
In short: as §2

[9] = test system: blackgrass (Alopecurus myosuroides); assay: Test D pre-/postemergence plant response
In short: as §2

[10] = test system: johnsongrass (Sorghum halepense); assay: Test D pre-/postemergence plant response
In short: as §2

corn (Zea mays) = assay: Test B pre-/postemergence plant response
In short: (§3)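 Steps: plant seeds in loam soil–sand mix; spray soil preemergence, and in parallel spray 2–10 cm one- to two-leaf plants postemergence; hold ~10 days in greenhouse; visually rate injury against untreated controls (0 = no effect, 100 = complete control).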

[11] = test system: pigweed (Amaranthus retroflexus); assay: Test B pre-/postemergence plant response
In short: as §3

[12] = test system: barnyardgrass (Echinochloa crus-galli); assay: Test B pre-/postemergence plant response
In short: as §3

[13] = test system: giant foxtail (Setaria faberii); assay: Test B pre-/postemergence plant response
In short: as §3

[14] = test system: wheat (Triticum aestivum); assay: Test B pre-/postemergence plant response
In short: as §3

[15] = Postemergence, 31 g ai/ha, scale 0 to 100 (0 no effect, 100 complete control)
[16] = Postemergence, 62 g ai/ha, scale 0 to 100, 0 no effect, 100 complete control
[17] = Postemergence, 125 g ai/ha, scale 0 to 100, 0 no effect, 100 complete control
[18] = Preemergence, 16 g ai/ha, scale 0 to 100 (0 no effect, 100 complete control)
[19] = Preemergence, 31 g ai/ha, scale 0 to 100 (0 no effect, 100 complete control)
[20] = Preemergence, 62 g ai/ha, scale 0 to 100 (0 no effect, 100 complete control)
[21] = 125 g ai/ha, postemergence, 0 to 100 scale, 0 no effect, 100 complete control
[22] = Postemergence, 31 g ai/ha, 0 to 100 scale (0 no effect, 100 complete control)
[23] = 31 g ai/ha, Preemergence, 0 to 100 scale where 0 is no effect and 100 is complete control
[24] = Preemergence, 125 g ai/ha, 0 to 100 scale (0 no effect, 100 complete control)

Cc1cc(-c2c(F)cccc2Oc2ncc(Cl)cn2)on1 [Compound 229]
80: Plant response rating, Lambsquarters [4, 19] | Plant response rating, Lambsquarters [4, 20] | Plant response rating, Galium [7, 17] | Plant response rating, Galium [7, 19] | Plant response rating, Foxtail, Giant [13, 21]
45: Velvetleaf plant response rating [8, 16] | Plant response rating, Johnsongrass [10, 20]
50: Plant response rating, Barnyardgrass [12, 23] | Plant response rating, Foxtail, Giant [13, 22]
70: Lambsquarters plant response rating [4, 15] | Lambsquarters plant response rating [4, 16] | Plant response rating (scale 0 to 100), Galium ([7]; Postemergence, 16 g ai/ha) | Galium plant response rating [7, 15] | Plant response rating, Velvetleaf [8, 17] | Plant response rating, Velvetleaf [8, 18] | Plant response rating, Blackgrass [9, 20] | Plant response rating (scale 0 to 100), Johnsongrass ([10]; Preemergence, 125 g ai/ha) | Plant response rating, Pigweed [11, 22] | Plant response rating, Barnyardgrass [12, 21]
5: Wheat plant response rating [5, 16] | Plant response rating, Crabgrass, Large [6, 16] | Plant response rating, Crabgrass, Large [6, 17]
55: Barnyardgrass plant response rating [3]
95: Plant response rating (scale 0 to 100), Lambsquarters ([4]; Preemergence, 125 g ai/ha)
10: Wheat plant response rating [5, 15] | Plant response rating, Wheat [5, 17] | Blackgrass plant response rating [9, 15] | Plant response rating, Blackgrass [9, 17] | Plant response rating, Johnsongrass [10, 18] | Plant response rating, Johnsongrass [10, 19]
15: Rice plant response rating (rice (Oryza sativa)) | Plant response rating (scale 0 to 100), Wheat ([5]; Preemergence, 125 g ai/ha) | Plant response rating (scale 0 to 100), Velvetleaf ([8]; Postemergence, 16 g ai/ha) | Plant response rating, Blackgrass [9, 16] | Plant response rating, Blackgrass [9, 18] | Plant response rating, Blackgrass [9, 19]
20: Plant response rating, Barnyardgrass [12, 22]
35: Plant response rating, Lambsquarters [4, 18]
100: Plant response rating (scale 0 to 100), Crabgrass, Large ([6]; Preemergence, 125 g ai/ha) | Plant response rating, Crabgrass, Large [6, 20] | Plant response rating (scale 0 to 100), Velvetleaf ([8]; Preemergence, 125 g ai/ha) | Plant response rating, Velvetleaf [8, 20] | Plant response rating, Pigweed [11, 23] | Plant response rating, Pigweed [11, 21] | Pigweed plant response rating [11, 24]
25: Plant response rating, Johnsongrass [10, 17]
40: Plant response rating, Galium [7, 18] | Plant response rating, Wheat [14, 21]
65: Plant response rating, Galium [7, 16]
30: Plant response rating, Corn (corn (Zea mays); [21])
75: Plant response rating, Crabgrass, Large [6, 18]
0: Plant response rating (scale 0 to 100), Wheat ([5]; Postemergence, 16 g ai/ha) | Plant response rating, Wheat [5, 18] | Plant response rating, Wheat [5, 19] | Plant response rating, Wheat [5, 20] | Plant response rating (scale 0 to 100), Crabgrass, Large ([6]; Postemergence, 16 g ai/ha) | Crabgrass, Large plant response rating [6, 15] | Plant response rating (scale 0 to 100), Blackgrass ([9]; Postemergence, 16 g ai/ha) | Plant response rating (scale 0 to 100), Johnsongrass ([10]; Postemergence, 16 g ai/ha) | Johnsongrass plant response rating [10, 15] | Plant response rating, Johnsongrass [10, 16] | Plant response rating, Corn (corn (Zea mays); [22]) | Plant response rating, Wheat [14, 22]
60: Plant response rating (scale 0 to 100), Lambsquarters ([4]; Postemergence, 16 g ai/ha) | Velvetleaf plant response rating [8, 15]
90: Sedge, Umbrella plant response rating [1] | Ducksalad plant response rating [2] | Plant response rating, Velvetleaf [8, 19] | Barnyardgrass plant response rating [12, 24] | Plant response rating, Foxtail, Giant [13, 23] | Foxtail, Giant plant response rating [13, 24]
85: Plant response rating, Lambsquarters [4, 17] | Plant response rating, Crabgrass, Large [6, 19] | Plant response rating (scale 0 to 100), Blackgrass ([9]; Preemergence, 125 g ai/ha)
98: Plant response rating (scale 0 to 100), Galium ([7]; Preemergence, 125 g ai/ha) | Plant response rating, Galium [7, 20]

Cc1cc(-c2c(F)cccc2Oc2ncc(Br)cn2)on1 [Compound 230]
0: Plant response rating (scale 0 to 100), Crabgrass, Large ([6]; Postemergence, 16 g ai/ha) | Plant response rating (scale 0 to 100), Blackgrass ([9]; Postemergence, 16 g ai/ha) | Plant response rating (scale 0 to 100), Johnsongrass ([10]; Postemergence, 16 g ai/ha) | Johnsongrass plant response rating [10, 15] | Plant response rating, Corn (corn (Zea mays); [22]) | Plant response rating, Barnyardgrass [12, 22] | Plant response rating, Foxtail, Giant [13, 22] | Plant response rating, Wheat [14, 22]
15: Plant response rating, Wheat [5, 17]
55: Plant response rating (scale 0 to 100), Lambsquarters ([4]; Postemergence, 16 g ai/ha) | Velvetleaf plant response rating [8, 16]
5: Plant response rating (scale 0 to 100), Wheat ([5]; Postemergence, 16 g ai/ha) | Wheat plant response rating [5, 15] | Wheat plant response rating [5, 16] | Crabgrass, Large plant response rating [6, 15] | Crabgrass, Large plant response rating [6, 16] | Johnsongrass plant response rating [10, 16] | Plant response rating, Johnsongrass [10, 17]
80: Lambsquarters plant response rating [4, 16] | Plant response rating (scale 0 to 100), Galium ([7]; Postemergence, 16 g ai/ha)
90: Plant response rating, Pigweed [11, 23] | Plant response rating, Pigweed [11, 21] | Foxtail, Giant plant response rating [13, 24]
10: Plant response rating, Crabgrass, Large [6, 17] | Blackgrass plant response rating [9, 15] | Blackgrass plant response rating [9, 16] | Plant response rating, Blackgrass [9, 17] | Plant response rating, Corn (corn (Zea mays); [21]) | Plant response rating, Barnyardgrass [12, 23] | Plant response rating, Wheat [14, 21]
60: Plant response rating, Pigweed [11, 22] | Plant response rating, Barnyardgrass [12, 21] | Plant response rating, Foxtail, Giant [13, 23]
100: Pigweed plant response rating [11, 24]
95: Plant response rating, Galium [7, 17]
40: Barnyardgrass plant response rating [3] | Velvetleaf plant response rating [8, 15]
25: Plant response rating (scale 0 to 100), Velvetleaf ([8]; Postemergence, 16 g ai/ha)
85: Sedge, Umbrella plant response rating [1] | Ducksalad plant response rating [2] | Galium plant response rating [7, 15] | Galium plant response rating [7, 16]
20: Rice plant response rating (rice (Oryza sativa))
70: Lambsquarters plant response rating [4, 15] | Plant response rating, Lambsquarters [4, 17] | Barnyardgrass plant response rating [12, 24] | Plant response rating, Foxtail, Giant [13, 21]
65: Plant response rating, Velvetleaf [8, 17]
